In paper PMC3366674, “Epigenetic Tailoring for the Production of Anti-Infective Cytosporones from the Marine Fungus Leucostoma persoonii” (Marine Drugs, 2012):
In brackets after ≈: the same amount, converted by molar mass. Read-outs that look alike come from different tables or passages of the source.

Legend:
MRSA biofilm = experiment: Minimum biofilm eradication count (MBEC) biofilm assay; assay type: cell-based, Staphylococcus aureus; conditions: MRSA USA100 biofilm; for MRSA MBEC90: 24 h exposure
Protocol: (§1) The strain of MRSA used in our bioassays is a hospital-associated clone from the CDC USA 100 lineage. […] It is thus deemed an extensively drug resistant strain, and something of a worst-case scenario MRSA isolate.
We performed minimum biofilm eradication count (MBEC) assays on cytosporones to assess their activity towards this form of bacterial growth. These were performed by generating S. aureus biofilms in a 96-well microtitre plate, as previously described. Once established, biofilm cultures were exposed to fresh growth media containing a range of concentrations of 15, 20, 25 and 50 µg/mL of the cytosporones. Control analyses were performed in parallel containing no compound. Cultures were incubated, covered, for 24 h at 37 °C without shaking. After this time the culture media was aseptically aspirated, and the wells rinsed twice with PBS to remove non-adherent cells. Fresh PBS (100 µL) was then added to the wells, and mixed by vigorous pipetting, to dislodge the biofilm matrix from the surface of the wells. These samples were serially diluted, plated on TSA, with cells enumerated after overnight incubation at 37 °C. Each of the above analyses was performed with 3 biological replicates, each of which also had 3 technical replicates. By comparing CFU/mL against control, no-exposed cultures, we were able to obtain a quantitative assessment of the impact of cytosporones on S. aureus biofilms.

A549 cells = experiment: A549 cytotoxicity assay (CellTiter 96 Aqueous One); assay type: cell-based, human; conditions: 72 h incubation
Protocol: Cell line A549 (adenocarcinomic human alveolar epithelial cells) was cultured in F-12K Nutrient Mixture (Kaighn’s Modification) media containing L-glutamine, supplemented with 10% fetal bovine serum and 1% penicillin-streptomycin. For the assay, the A549 cells were diluted to 1.33 × 10^5 cells/mL in DMEM F12 media with L-glutamine, without HEPES or phenol red, and supplemented with 2% fetal bovine serum and 1% penicillin-streptomycin. The A549 cells were dispensed into 96 well plates at a volume of 90 µL/well giving a final concentration of 12,000 cells per well. Plates were incubated for 24 h at 37 °C and 5% CO2. After 24 h, 10 µL of the test compounds at concentrations of 0.4, 1.2, 3.7, 11, 33.3 and 100 µg/mL were added to the 96 well plates containing A549 cells followed by 72 h of incubation at 37 °C and 5% CO2. A Beckman-Coulter Biomek NX 3000 was used to dispense cells and dispense test compounds to the 96 well plates. Positive (bronopol) and negative (blank DMSO) controls were included on each assay plate. After the incubation period, cell proliferation was assessed using Promega’s CellTiter 96 Aqueous One Solution Cell Proliferation Assay reagent. Into each well 20 µL of reagent was added followed by incubation for 3 h at 37 °C and 5% CO2. A Biotek plate reader was used to read absorbance at 490 nm and IC50 values were determined for each test compound.

[1] = system: methicillin-resistant Staphylococcus aureus (MRSA) USA100; experiment: Minimum bactericidal concentration (MBC) counts on MIC cultures; assay type: cell-based; conditions: for fold reduction in bacterial viability at MIC: MRSA USA100, at MIC; for MBC: Staphylococcus aureus, MRSA USA100, read-out: MRSA MBC90
Protocol: as §1
(§2) The minimum inhibitory concentration (MIC) of the pure compounds was determined as follows. Broth cultures were prepared for S. aureus strains as described above. These were diluted 1:1000 in fresh Trypticase Soy Broth (TSB) and 200 µL was applied to the wells of a sterile 96-well plate. Compounds (in DMSO) were added to wells at concentrations ranging from 1, 10, 25, 50 to 100 µg/mL in a volume no greater than 5 µL. Concentrations were adjusted to lower levels if applicable. Samples were mixed by pipetting and the plates were incubated at 37 °C overnight. MICs were determined by visual inspection for the minimum concentration of compound producing no bacterial growth, as determined by a lack of turbidity. Assays were repeated three times in order to verify the MIC determinations. […] Minimum bactericidal concentration (MBC) counts were performed on the MIC cultures by removing the growth media from each well the following morning, serially diluting, and plating onto Trypticase Soy Agar (TSA). These were incubated overnight at 37 °C and the bacterial loads of each well were determined by enumeration. Percentage killing was determined by the comparison of drug-containing wells to control wells where no compound was added.

[2] = system: methicillin-sensitive S. aureus (MSSA); experiment: Microtiter MIC determination against MSSA; assay type: cell-based; conditions: Staphylococcus aureus, methicillin-sensitive S. aureus strains
Protocol: as §2

[3] = system: methicillin-resistant Staphylococcus aureus (MRSA) USA100; experiment: Microtiter MIC determination against MRSA USA100; assay type: cell-based; conditions: for MIC: Staphylococcus aureus; for activity against MRSA: pure compound
Protocol: as §1, §2

Plasmodium falciparum = experiment: Malaria assay (luciferase-reporter Plasmodium falciparum); assay type: cell-based; conditions: for activity toward Plasmodium falciparum: levels tested up to 10 µg/mL
Protocol: Mangrove endophytes isolated as described above were subject to small-scale cultivation on Sabouraud dextrose agar (SDA), freeze dried, then extracted with methanol. Extracts at a concentration of 30 mg/mL were screened in a luciferase-reporter Plasmodium falciparum assay.
Malaria screening was done as previously reported.

[4] = MRSA USA100, overnight 37 °C, visual turbidity, read-out: MRSA MIC

| Structure (SMILES) | MRSA MBEC90 (MRSA biofilm) [µM] | fold reduction in biofilm (MBEC assay) at MIC (MRSA biofilm) [fold] | IC90 (A549 cells; listed as Cytosporone E (3)) [µM] | IC50 (A549 cells; Homo sapiens) [µM] | IC90 (A549 cells; Homo sapiens, A549, 72 h) [µM] | fold reduction in bacterial viability at MIC [1] [fold] | MBC [1] [µM] | MIC [2] [µM] | MIC [3, 4] [µM] | IC90 (Plasmodium falciparum; Plasmodium falciparum, read-out: IC90 toward Plasmodium falciparum) [µM] | activity against MRSA [3] | activity toward Plasmodium falciparum (Plasmodium falciparum) | fold reduction in biofilm formation at twice the MIC (MRSA biofilm; at twice the MIC) [fold] | bacterial killing at twice the MIC ([1]; MRSA USA100, at twice the MIC) | MIC ([3]; read-out: MIC of positive control) [mg/L] |
| --- | --- | --- | --- | --- | --- | --- | --- | --- | --- | --- | --- | --- | --- | --- | --- |
| CCCCCCCC1OC(=O)c2cc(O)c(O)c(O)c21 (stereo not shown) [Cytosporone E, cytosporone E] | 39 | 183 | 440 | 280 | 437 | > 5000 | 45 (≈ 12.6 µg/mL) | 72 (≈ 20.2 µg/mL) | 72 | 13 |  |  |  |  |  |
| CCCCCCCC(=O)c1c(O)cc(O)cc1CC(=O)OCC(O)CO (stereo not shown) [Cytosporone R, cytosporone R] |  |  |  |  |  |  |  |  | 503 |  | inactive |  |  |  |  |
| CCCCCCCC1OC(=O)Cc2cc(O)cc(O)c21 (stereo not shown) [Cytosporone C, cytosporone C] |  |  |  | 690 | 840 |  |  |  | > 358 |  | inactive | inactive |  |  |  |
| CCCCCCCC(=O)c1c(O)cc(O)cc1CC(=O)OCC [Cytosporone B, cytosporone B] | 110 | 2 |  | 170 | 190 | 4.2 | 93 (≈ 30 µg/mL) |  | 78 |  |  | inactive | 168 | complete killing of the bacteria |  |
| CN[C@H](CC(C)C)C(=O)N[C@H]1C(=O)N[C@@H](CC(N)=O)C(=O)N[C@H]2C(=O)N[C@H]3C(=O)N[C@H](C(=O)N[C@H](C(=O)O)c4cc(O)cc(O)c4-c4cc3ccc4O)[C@H](O)c3ccc(c(Cl)c3)Oc3cc2cc(c3O[C@@H]2O[C@H](CO)[C@@H](O)[C@H](O)[C@H]2O[C@H]2C[C@](C)(N)[C@H](O)[C@H](C)O2)Oc2ccc(cc2Cl)[C@H]1O [vancomycin, reference compound] |  |  |  |  |  |  |  |  |  |  |  |  |  |  | 1 |
